Results reported in ChEMBL document CHEMBL1201862, “PubChem BioAssay data set” (2004).
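A five-concentration, 48-hour dose response in 96-well plates underlies each endpoint, interpolated linearly between surrounding concentrations. GI50: concentration for 50% inhibition of growth.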 The source made the active and inactive calls. No stated cut-off is given here; in the data, active = GI50 up to about 1.1 µM and inactive = higher.

How the values were obtained:
Assay in all cases: growth of human tumour cells (NCI), 48 h
[1] = test system: SK-MEL-28
[2] = test system: MDA-MB-231
[3] = test system: MDA-MB-435
[4] = test system: UACC-62
[5] = test system: HT-29
[6] = test system: OVCAR-3
[7] = test system: SK-MEL-5
[8] = test system: SNB-19
[9] = test system: MOLT-4
[10] = test system: A549
[11] = test system: SN12C
[12] = test system: CCRF-CEM
[13] = test system: K562
[14] = test system: EKVX
[15] = test system: Hs-578T
[16] = test system: NCI/ADR-RES
[17] = test system: ACHN
[18] = test system: KM12
[19] = test system: SF-539
[20] = test system: HL-60
[21] = test system: TK-10
[22] = test system: A498
[23] = test system: SNB-75
[24] = test system: T47D
[25] = test system: HOP-62
[26] = test system: NCI-H522
[27] = test system: NCI-H460
[28] = test system: SK-MEL-2
[29] = test system: RXF 393
[30] = test system: SW-620
[31] = test system: SK-OV-3
[32] = test system: SF-268
[33] = test system: UO-31
[34] = test system: HCT-15
[35] = test system: NCI-H226
[36] = test system: DU-145
[37] = test system: HCT-116
[38] = test system: NCI-H23
[39] = test system: IGROV-1
[40] = test system: HCC 2998
[41] = test system: SR
[42] = test system: MCF7
[43] = test system: M14
[44] = test system: OVCAR-8
[45] = test system: SF-295
[46] = test system: COLO 205
[47] = test system: Malme-3M
[48] = test system: CAKI-1
[49] = test system: OVCAR-4
[50] = test system: MDA-N
[51] = test system: U-251
[52] = test system: OVCAR-5
[53] = test system: RPMI-8226
[54] = test system: PC-3
[55] = test system: LOX IMVI
[56] = test system: BT-549
[57] = test system: UACC-257
[58] = test system: 786-0

**Q.** What does the source list for `COc1ccc(N2C(=O)C3c4[nH]c5cc(C)ccc5c4C4CCC(C(C)(C)C)CC4C3C2=O)cc1` (stereo unspecified)?
**A.** GI50 [1]: > 10 µM (inactive); GI50 [2]: > 10 µM (inactive); GI50 [3]: > 10 µM (inactive); GI50 [4]: 6.19 µM (inactive); GI50 [5]: > 10 µM (inactive); GI50 [6]: > 10 µM (inactive); GI50 [7]: > 10 µM (inactive); GI50 [8]: > 10 µM (inactive); GI50 [9]: > 10 µM (inactive); GI50 [10]: > 10 µM (inactive); GI50 [11]: > 10 µM (inactive); GI50 [12]: > 10 µM (inactive); GI50 [13]: > 10 µM (inactive); GI50 [14]: 9.1 µM (inactive); GI50 [15]: 3.08 µM (inactive); GI50 [16]: 3.66 µM (inactive); GI50 [17]: > 10 µM (inactive); GI50 [18]: > 10 µM (inactive); GI50 [19]: 4.19 µM (inactive); GI50 [20]: > 10 µM (inactive); GI50 [21]: > 10 µM (inactive); GI50 [22]: 5.21 µM (inactive); GI50 [23]: 2.59 µM (inactive); GI50 [24]: > 10 µM (inactive); GI50 [25]: 7.6 µM (inactive); GI50 [26]: 8.63 µM (inactive); GI50 [27]: 7.62 µM (inactive); GI50 [28]: > 10 µM (inactive); GI50 [29]: > 10 µM (inactive); GI50 [30]: > 10 µM (inactive); GI50 [31]: > 10 µM (inactive); GI50 [32]: 5.75 µM (inactive); GI50 [33]: > 10 µM (inactive); GI50 [34]: > 10 µM; GI50 [35]: > 10 µM (inactive); GI50 [36]: > 10 µM (inactive); GI50 [37]: > 10 µM (inactive); GI50 [38]: > 10 µM (inactive); GI50 [39]: > 10 µM (inactive); GI50 [40]: > 10 µM (inactive); GI50 [41]: > 10 µM (inactive); GI50 [42]: > 10 µM (inactive); GI50 [43]: > 10 µM (inactive); GI50 [44]: 4.88 µM (inactive); GI50 [45]: 7.08 µM (inactive); GI50 [46]: > 10 µM (inactive); GI50 [47]: > 10 µM (inactive); GI50 [48]: > 10 µM (inactive); GI50 [49]: 4.36 µM (inactive); GI50 [50]: > 10 µM (inactive); GI50 [51]: 5.43 µM (inactive); GI50 [52]: > 10 µM (inactive); GI50 [53]: > 10 µM (inactive); GI50 [54]: 5.24 µM (inactive); GI50 [55]: 7.24 µM (inactive)

**Q.** For `COc1ccc2nc3ccc(OC)cc3c(SCC3CO3)c2c1` (stereo unspecified), which GI50 [1] is on record?
**A.** Its GI50 is 17.7 µM (inactive).

**Q.** And the GI50 [2]?
**A.** Its GI50 is 15 µM (inactive).

**Q.** What about the GI50 [3] of the same compound?
**A.** Its GI50 is 18.2 µM (inactive).

**Q.** What about the GI50 [6] of the same compound?
**A.** Its GI50 is 14.9 µM (inactive).

**Q.** And the GI50 [7]?
**A.** Its GI50 is 15.8 µM (inactive).

**Q.** And the GI50 [8]?
**A.** Its GI50 is 24.6 µM (inactive).

**Q.** And the GI50 [10]?
**A.** The GI50 was 24.2 µM (inactive).

**Q.** What about the GI50 [11] of the same compound?
**A.** Its GI50 is 13.8 µM (inactive).

**Q.** And the GI50 [12]?
**A.** Its GI50 is 6.85 µM (inactive).

**Q.** And the GI50 [13]?
**A.** The GI50 was 8.59 µM (inactive).

**Q.** And the GI50 [14]?
**A.** Its GI50 is 13.3 µM (inactive).

**Q.** And the GI50 [16]?
**A.** Its GI50 is 17.1 µM (inactive).

**Q.** And the GI50 [17]?
**A.** Its GI50 is 8.71 µM (inactive).

**Q.** And the GI50 [18]?
**A.** Its GI50 is 16.1 µM (inactive).

**Q.** And the GI50 [19]?
**A.** Its GI50 is 10.8 µM (inactive).

**Q.** And the GI50 [21]?
**A.** Its GI50 is 12.8 µM (inactive).

**Q.** What about the GI50 [22] of the same compound?
**A.** The GI50 was 25.8 µM (inactive).

**Q.** And the GI50 [23]?
**A.** Its GI50 is 37.2 µM (inactive).

**Q.** What about the GI50 [24] of the same compound?
**A.** The GI50 was 16.8 µM (inactive).

**Q.** What about the GI50 [25] of the same compound?
**A.** Its GI50 is 44.6 µM (inactive).

**Q.** What about the GI50 [26] of the same compound?
**A.** Its GI50 is 13 µM (inactive).

**Q.** And the GI50 [27]?
**A.** Its GI50 is 12 µM (inactive).

**Q.** What about the GI50 [56] of the same compound?
**A.** The GI50 was 15.8 µM (inactive).

**Q.** And the GI50 [28]?
**A.** The GI50 was 14.2 µM (inactive).

**Q.** What about the GI50 [29] of the same compound?
**A.** The GI50 was 15.8 µM (inactive).

**Q.** And the GI50 [30]?
**A.** The GI50 was 11.1 µM (inactive).

**Q.** And the GI50 [31]?
**A.** Its GI50 is 71.3 µM (inactive).

**Q.** And the GI50 [57]?
**A.** Its GI50 is 15.5 µM (inactive).

**Q.** And the GI50 [58]?
**A.** Its GI50 is 11.1 µM (inactive).

**Q.** And the GI50 [32]?
**A.** The GI50 was 13.2 µM (inactive).

**Q.** What about the GI50 [33] of the same compound?
**A.** The GI50 was 12.3 µM (inactive).

**Q.** And the GI50 [34]?
**A.** The GI50 was 15.6 µM.

**Q.** And the GI50 [35]?
**A.** Its GI50 is 34.4 µM (inactive).

**Q.** What about the GI50 [37] of the same compound?
**A.** The GI50 was 10.5 µM (inactive).

**Q.** And the GI50 [38]?
**A.** Its GI50 is 17.2 µM (inactive).

**Q.** What about the GI50 [40] of the same compound?
**A.** The GI50 was 15.6 µM (inactive).

**Q.** And the GI50 [41]?
**A.** The GI50 was 6.89 µM (inactive).

**Q.** What about the GI50 [42] of the same compound?
**A.** Its GI50 is 11.2 µM (inactive).

**Q.** And the GI50 [43]?
**A.** Its GI50 is 14.4 µM (inactive).

**Q.** And the GI50 [44]?
**A.** Its GI50 is 11 µM (inactive).

**Q.** What about the GI50 [45] of the same compound?
**A.** Its GI50 is 60.7 µM (inactive).

**Q.** And the GI50 [46]?
**A.** The GI50 was 19 µM (inactive).

**Q.** And the GI50 [47]?
**A.** The GI50 was 14.1 µM (inactive).

**Q.** What about the GI50 [48] of the same compound?
**A.** The GI50 was 5.79 µM (inactive).

**Q.** And the GI50 [49]?
**A.** The GI50 was 19.5 µM (inactive).

**Q.** What about the GI50 [50] of the same compound?
**A.** The GI50 was 15.8 µM (inactive).

**Q.** And the GI50 [51]?
**A.** The GI50 was 12.7 µM (inactive).

**Q.** What about the GI50 [52] of the same compound?
**A.** Its GI50 is 24.9 µM (inactive).

**Q.** What about the GI50 [53] of the same compound?
**A.** Its GI50 is 22.7 µM (inactive).

**Q.** What about the GI50 [54] of the same compound?
**A.** Its GI50 is 14.9 µM (inactive).

**Q.** And the GI50 [55]?
**A.** Its GI50 is 15.4 µM (inactive).
